Source: patent US12226431B2 (priority 2021, dated 2025)

Legend:
[1] = preservative in nasal sprays and nebulization; cited from earlier work
SARS-COV-2 = details: two weeks of receiving the quercetin treatment; cited from earlier work
influenza virus = details: cited from earlier work
cell plasma membrane = assay: Cells exposed to increasing concentration of M-βCD to deplete plasma membrane cholesterol: phospholipid uptake and membrane fusion proteins; type: cell-based
vaccinia virus = details: depletion of plasma membrane cholesterol in host cells; cited from earlier work
pseudorabies virus = details: cited from earlier work
[2] = increasing concentration of M-βCD, cholesterol depletion

Molecule: OCc1ccccc1 [phenylcarbinol]
- adverse / toxic effects [1]: toxic effects

Molecule: O=c1c(O)c(-c2ccc(O)c(O)c2)oc2cc(O)cc(O)c12 [quercetin]
- SARS-COV-2 infected patients cleared of the virus (SARS-COV-2): 98%
- therapeutic effects against influenza virus (influenza virus): therapeutic effects

Molecule: Benzalkonium chloride
- adverse / toxic effects [1]: sino-nasal mucosal injury, nasal squamous metaplasia, ciliary dysmotility, genotoxicity, and other adverse effects

Molecule: methyl beta cyclodextrin [M-βCD]
- uptake of phosphatidyl serine by the cell plasma membrane (cell plasma membrane; [2]): loss in the uptake
- uptake of phosphatidylethanolamine by the cell plasma membrane (cell plasma membrane; [2]): remain unchanged
- membrane fusion proteins syntaxin and SNAP25 at the plasma membrane (cell plasma membrane; loss of cholesterol from the cell plasma membrane): depletion of membrane fusion proteins
- entry of vaccinia virus into cells (vaccinia virus): significantly reduces
- entry of pseudorabies virus into cells (pseudorabies virus): significantly reduces
